{"source": "patent US20250130239A1", "about": "“PROTEIN DEGRADER” (University of Dundee, priority 2021, published 2025)", "key": {"[1]": {"biological_target": "T1, MCM2 (P49736), BromoTag N-term (Homo sapiens, UniProt O60885+P40337, L387A)", "T1 construct": "comprising residues 368-440 of human Brd4; MCM2 (endogenous protein, fusion partner in the same polypeptide); expressed in transfected cells", "assay": "Degradation of BromoTag'ed MCM2 by AGB1", "type": "cell-based", "from_the_text": "(§1) Degradation of a variety of target proteins. […] We performed CRISPR knock-in of the BromoTag, as described, into the endogenous loci of five additional proteins. […] The target proteins of Table 6 are all different, are all known to have different cellular roles and function, intracellular expression, and distinctive turnover rates within cells."}, "[2]": {"biological_target": "T2, MCM4 (P33991), BromoTag N-term (Homo sapiens, UniProt O60885+P40337, L387A)", "T2 construct": "comprising residues 368-440 of human Brd4; MCM4 (endogenous protein, fusion partner in the same polypeptide); expressed in transfected cells", "T2 sequence (P40337 whole entry, other chains not shown, the tested form may be a part)": "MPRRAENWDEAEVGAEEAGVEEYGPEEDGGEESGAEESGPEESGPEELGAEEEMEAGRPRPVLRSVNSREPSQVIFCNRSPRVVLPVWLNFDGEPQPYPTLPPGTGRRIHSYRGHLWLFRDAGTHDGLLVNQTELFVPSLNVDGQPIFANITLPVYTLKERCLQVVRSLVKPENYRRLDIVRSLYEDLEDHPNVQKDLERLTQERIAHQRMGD", "assay": "Degradation of BromoTag'ed MCM4 by AGB1", "type": "cell-based", "from_the_text": "as §1"}, "[3]": {"system": "BRD3, BRD4 or any other endogenous protein", "assay": "TMT labeling mass spectrometry proteomics, off-targets", "type": "cell-based, human", "conditions": "1 μM, 2 h; >6,621 proteins quantified", "experimental": "Sample processing, TMT labelling and fractionation. CRISPR modified BromoTag-Brd2 HEK293 cells were seeded 5×10^6 cells on a […] 24 h before treatment. Cells were treated with either DMSO, 1 μM AGB1 or 1 μM cis-AGB1. 2 h post-treatment, the cells were washed twice with PBS. Cells were lysed in 150 μL of 100 mM TEAB, 5% (w/v) SDS. The lysate was sonicated for 10 s and then centrifuged at 15,000 g for 5 min with the supernatant collected post-centrifugation. Samples were then quantified using a micro-BCA protein assay kit (Thermo Fisher Scientific); 300 μg of each sample were then reduced, alkylated and then digested using Strap mini protocol (Protifi) protocol as described by the manufacturer (protifi) with some modification. Samples were double digested with trypsin (1:40) first overnight then for another 6 hrs with the same ratio (1:40) in 50 mM TEAB buffer. Peptides were quantified using a quantitative fluorometric peptide assay (Thermo Fisher Scientific). The samples (90 μg each) were labelled with a TMT 10-plex Isobaric Label Reagent set (Thermo Fisher Scientific) as per the manufacturer's instructions. After labelling, samples were checked for labelling efficiency, then mixed, desalted, and dried in a speed-vac at 30° C. Samples were re-dissolved in 200 μl ammonium formate (10 mM, pH 9.5) and peptides were fractionated using High pH RP Chromatography. […]"}}}
{"molecule": "CC[C@@H](C(=O)OCCOCCOCCOCC(=O)N[C@H](C(=O)N1C[C@H](O)C[C@H]1C(=O)NCc1ccc(-c2scnc2C)cc1)C(C)(C)C)[C@@H]1N=C(c2ccc(Cl)cc2)c2c(sc(C)c2C)-n2c(C)nnc21", "note": "(single isomer, unassigned) [AGB1 (46)]", "values": [{"measurement": "Dmax", "setting": "[1]", "result": "> 95", "unit": "%"}, {"measurement": "pDC50", "setting": "[1]; BromoTag'ed MCM2, N-term tag", "result": 8.0}, {"measurement": "Dmax", "setting": "[2]", "result": "> 99", "unit": "%"}, {"measurement": "pDC50", "setting": "[2]; BromoTag'ed MCM4, N-term tag", "result": 8.1}, {"measurement": "depletion of BRD3, BRD4 or any other endogenous protein (proteomics)", "setting": "[3]", "result": "no detectable off-target effects"}]}
